From patent US10472661B2, “Method for increasing glycosylation of a composition comprising steviol glycosides” (DSM IP ASSETS B.V., priority 2014, dated 2019)

Key:
UGT3-SEQ ID NO: 74 = molecular target: T1, UGT3-SEQ ID NO: 74 (Stevia rebaudiana, UniProt Q6VAA6); assay type: biochemical; conditions: CFE 0.05 mg/mL, UDP-glucose 1 mM
T1 construct: made in house; host or cells: Saccharomyces cerevisiae; unpurified soluble cell extract (CFE) from bead-lysed biomass
T1 sequence (Q6VAA6 1-460): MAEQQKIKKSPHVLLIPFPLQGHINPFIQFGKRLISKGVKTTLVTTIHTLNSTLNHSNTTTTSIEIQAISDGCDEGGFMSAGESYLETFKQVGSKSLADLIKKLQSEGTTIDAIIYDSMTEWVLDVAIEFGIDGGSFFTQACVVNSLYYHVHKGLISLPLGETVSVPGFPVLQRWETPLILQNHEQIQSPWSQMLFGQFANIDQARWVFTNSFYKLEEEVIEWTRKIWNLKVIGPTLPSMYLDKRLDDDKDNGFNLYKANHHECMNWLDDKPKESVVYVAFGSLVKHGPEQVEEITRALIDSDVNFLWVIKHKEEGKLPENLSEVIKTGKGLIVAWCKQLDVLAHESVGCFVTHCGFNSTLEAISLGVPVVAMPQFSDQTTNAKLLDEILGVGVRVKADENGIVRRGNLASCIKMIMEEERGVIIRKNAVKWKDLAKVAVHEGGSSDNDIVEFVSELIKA

[1] = system: CFE obtained from the Yarrowia lipolitica steviol glycoside producing strains; assay: bioconversion of rebaudiosideA with CFE of Yarrowia lipolitica steviol glycoside producing strains, UDP-glucose, LC-MS; assay type: biochemical; conditions: rebaudiosideA 100-500 μM; CFE 0.1 mg/mL; UDP-glucose 1 mM; products rebaudioside D and rebaudioside M
Description: Methods to obtain yeast strains expressing constructs encoding the steviol glycoside production pathway are described in WO2013/110673 and WO2015/007748. Here, different Yarrowia lipolitica strains were used: the parent strain (as negative control) and strains expressing the whole steviol glycoside production pathway. Cells were grow o/n in YEPD medium. After determining the optical density at 600 nm (respectively 1.00×10^10 cells/mL for the parent strain cultivation and 6.00-8.57×10^9 cells/mL for different Yarrowia lipolitica steviol glycoside producing strains), cells were lysed with 0.5 mm zirconia beads (see example 2 for details). The protein concentration of the thus obtained CFE were determined using Bradford reagent. The actual obtained protein concentrations ranged from 0,453 mg/mL to 0,771 mg/mL.
A dilution series of rebaudiosideA stock solutions was prepared at 0, 500, 1000, 1500, 2000 and 2500 μM in Van Eunen buffer. The CFE's were diluted in Van Eunen buffer to a concentration of 0.125 mg/m L. A 5 mM stock solution of UDP-glucose was prepared.
The reactions were set-up as described in example 2, only now the concentration of the CFE in the final reaction was doubled. Multiple samples were taken to follow the reactions.
In the reactions the final concentrations were: CFE, 0.1 mg/mL; UDP-glucose, 1 mM; rebaudiosideA, at 0, 100, 200, 300, 400, 500 μM. […]

[2] = suitable for use in carbonated beverages and many other foods; cited from earlier work
[3] = sweetness relative to sucrose; cited from earlier work
[4] = Type II diabetics; studies suggest; cited from earlier work
[5] = mildly hypertensive patients; studies suggest; cited from earlier work

Compound: rebaudioside B
- glycosylation of rebaudiosideB into rebaudiosideA by spent biomass derived material (UGT3-SEQ ID NO: 74; rebaudioside B 50-200 μM, samples 0-30 min, FIG. 2): very efficiently glycosylated

Compound: C=C1C[C@@]23CC[C@H]4[C@@](C)(CCC[C@@]4(C)C(=O)O[C@@H]4O[C@H](CO)[C@@H](O)[C@H](O)[C@H]4O)[C@@H]2CC[C@]1(O[C@@H]1O[C@H](CO)[C@@H](O)[C@H](O[C@@H]2O[C@H](CO)[C@@H](O)[C@H](O)[C@H]2O)[C@H]1O[C@@H]1O[C@H](CO)[C@@H](O)[C@H](O)[C@H]1O)C3 [rebaudioside A]
- Vmax of rebaudiosideA formation (UGT3-SEQ ID NO: 74; substrate rebaudioside B 0-200 μM, 30° C., calculated with GraphPad 5): 0.0549±0.004 μmol/mg protein/min
- glycosylated products detected by LC-MS [1]: two glycosylated products of rebaudioside A were detected
- heat and pH stability [2]: heat and pH stable

Compound: C=C1C[C@@]23CC[C@H]4[C@@](C)(CCC[C@@]4(C)C(=O)O[C@@H]4O[C@H](CO)[C@@H](O)[C@H](O)[C@H]4O[C@@H]4O[C@H](CO)[C@@H](O)[C@H](O)[C@H]4O)[C@@H]2CC[C@]1(O[C@@H]1O[C@H](CO)[C@@H](O)[C@H](O[C@@H]2O[C@H](CO)[C@@H](O)[C@H](O)[C@H]2O)[C@H]1O[C@@H]1O[C@H](CO)[C@@H](O)[C@H](O)[C@H]1O)C3 [rebaudioside D]
- times sweeter than sucrose [3]: about 200 times

Compound: C=C1C[C@@]23CC[C@H]4[C@@](C)(CCC[C@@]4(C)C(=O)O[C@@H]4O[C@H](CO)[C@@H](O)[C@H](O)[C@H]4O)[C@@H]2CC[C@]1(O[C@@H]1O[C@H](CO)[C@@H](O)[C@H](O)[C@H]1O[C@@H]1O[C@H](CO)[C@@H](O)[C@H](O)[C@H]1O)C3 [stevioside]
- heat and pH stability [2]: heat and pH stable
- effect on blood glucose levels [4]: can reduce blood glucose levels
- effect on blood pressure [5]: can reduce blood pressure
